Source: ChEMBL document CHEMBL1201862, “PubChem BioAssay data set” (2004)
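All cell lines were grown in 96-well plates and treated with compound for 48 hours. The concentration for 50% growth inhibition is given as GI50.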 Calls of active or inactive are those of the source. Cut-off read from the data, not from the text of the source: active = GI50 up to about 1.1 µM and inactive = higher.

How the values were obtained:
Assay in all cases: NCI-60 cell line screen, 48 h
COLO 205 = tested on: COLO 205
DLD-1 = tested on: DLD-1
KM-20L2 = tested on: KM-20L2
NCI-H23 = tested on: NCI-H23
SK-OV-3 = tested on: SK-OV-3
OVCAR-3 = tested on: OVCAR-3
SK-MEL-28 = tested on: SK-MEL-28
KM12 = tested on: KM12
RPMI-8226 = tested on: RPMI-8226
SN12C = tested on: SN12C
A498 = tested on: A498
HL-60 = tested on: HL-60
NCI-H460 = tested on: NCI-H460
Malme-3M = tested on: Malme-3M
CAKI-1 = tested on: CAKI-1
U-251 = tested on: U-251
SF-539 = tested on: SF-539
UACC-257 = tested on: UACC-257
HCC 2998 = tested on: HCC 2998
UO-31 = tested on: UO-31
CCRF-CEM = tested on: CCRF-CEM
UACC-62 = tested on: UACC-62
OVCAR-8 = tested on: OVCAR-8
HOP-62 = tested on: HOP-62
HCT-15 = tested on: HCT-15
SK-MEL-5 = tested on: SK-MEL-5
HT-29 = tested on: HT-29
K562 = tested on: K562
A549 = tested on: A549
OVCAR-4 = tested on: OVCAR-4
M19-MEL = tested on: M19-MEL
OVCAR-5 = tested on: OVCAR-5
NCI-H522 = tested on: NCI-H522
SNB-75 = tested on: SNB-75
HOP-18 = tested on: HOP-18
NCI-H226 = tested on: NCI-H226
TK-10 = tested on: TK-10
IGROV-1 = tested on: IGROV-1
786-0 = tested on: 786-0
HCT-116 = tested on: HCT-116
LOX IMVI = tested on: LOX IMVI
HOP-92 = tested on: HOP-92
SF-295 = tested on: SF-295
SF-268 = tested on: SF-268
SNB-78 = tested on: SNB-78
EKVX = tested on: EKVX
DMS-273 = tested on: DMS-273
SK-MEL-2 = tested on: SK-MEL-2
RXF 393 = tested on: RXF 393
RXF 631 = tested on: RXF 631
MOLT-4 = tested on: MOLT-4
M14 = tested on: M14
XF498 = tested on: XF498
DMS-114 = tested on: DMS-114
SNB-19 = tested on: SNB-19
SW-620 = tested on: SW-620
ACHN = tested on: ACHN

Structure (SMILES): COc1c(Br)cc(Br)c(OC)c1-c1[nH]c(Br)c(Br)c1Br
- GI50 (COLO 205): 10.4 µM (inactive)
- GI50 (DLD-1): 5.26 µM (inactive)
- GI50 (KM-20L2): 8.87 µM (inactive)
- GI50 (NCI-H23): 2.98 µM (inactive)
- GI50 (SK-OV-3): 13.6 µM (inactive)
- GI50 (OVCAR-3): 3.66 µM (inactive)
- GI50 (SK-MEL-28): 6.65 µM (inactive)
- GI50 (KM12): 4.48 µM (inactive)
- GI50 (RPMI-8226): 3.39 µM (inactive)
- GI50 (SN12C): 5.9 µM (inactive)
- GI50 (A498): 12.1 µM (inactive)
- GI50 (HL-60): 6.76 µM (inactive)
- GI50 (NCI-H460): 9.48 µM (inactive)
- GI50 (Malme-3M): 3.74 µM (inactive)
- GI50 (CAKI-1): 2.52 µM (inactive)
- GI50 (U-251): 10.4 µM (inactive)
- GI50 (SF-539): 9.98 µM (inactive)
- GI50 (UACC-257): 4.81 µM (inactive)
- GI50 (HCC 2998): 6.76 µM (inactive)
- GI50 (UO-31): 2.13 µM (inactive)
- GI50 (CCRF-CEM): 4.34 µM (inactive)
- GI50 (UACC-62): 6.98 µM (inactive)
- GI50 (OVCAR-8): 8.75 µM (inactive)
- GI50 (HOP-62): 8.22 µM (inactive)
- GI50 (HCT-15): 4.28 µM
- GI50 (SK-MEL-5): 6.55 µM (inactive)
- GI50 (HT-29): 4.17 µM (inactive)
- GI50 (K562): 4.01 µM (inactive)
- GI50 (A549): 5.04 µM (inactive)
- GI50 (OVCAR-4): 4.28 µM (inactive)
- GI50 (M19-MEL): 10.2 µM (inactive)
- GI50 (OVCAR-5): 14.3 µM (inactive)
- GI50 (NCI-H522): 2.18 µM (inactive)
- GI50 (SNB-75): 4.45 µM (inactive)
- GI50 (HOP-18): 2.54 µM (inactive)
- GI50 (NCI-H226): 5.7 µM (inactive)
- GI50 (TK-10): 11.4 µM (inactive)
- GI50 (IGROV-1): 5.71 µM (inactive)
- GI50 (786-0): 10.7 µM (inactive)
- GI50 (HCT-116): 3.25 µM (inactive)
- GI50 (LOX IMVI): 11.7 µM (inactive)
- GI50 (HOP-92): 1.82 µM (inactive)
- GI50 (SF-295): 4.63 µM (inactive)
- GI50 (SF-268): 3.78 µM (inactive)
- GI50 (SNB-78): 11.1 µM (inactive)
- GI50 (EKVX): 6.93 µM (inactive)
- GI50 (DMS-273): 6.9 µM (inactive)
- GI50 (SK-MEL-2): 3.01 µM (inactive)
- GI50 (RXF 393): 1.36 µM (inactive)
- GI50 (RXF 631): 6.64 µM (inactive)
- GI50 (MOLT-4): 4.53 µM (inactive)
- GI50 (M14): 7.16 µM (inactive)
- GI50 (XF498): 2.27 µM (inactive)
- GI50 (DMS-114): 4.8 µM (inactive)
- GI50 (SNB-19): 13.1 µM (inactive)
- GI50 (SW-620): 7.11 µM (inactive)
- GI50 (ACHN): 4.78 µM (inactive)
